The term IC50 denotes the point on the concentration scale where inhibition reaches its midpoint. Low readings indicate greater potency, high ones weaker potency.

Molecules are shown by their SMILES. Where a name gives a salt, the structure may show the parent alone.

The assay addresses T1, wild-type FLT3 receptor (Homo sapiens, UniProt P36888).
T1 construct: host or cells: Baf3 (murine B cell lymphoma line), stably transfected
T1 sequence (P36888 27-993): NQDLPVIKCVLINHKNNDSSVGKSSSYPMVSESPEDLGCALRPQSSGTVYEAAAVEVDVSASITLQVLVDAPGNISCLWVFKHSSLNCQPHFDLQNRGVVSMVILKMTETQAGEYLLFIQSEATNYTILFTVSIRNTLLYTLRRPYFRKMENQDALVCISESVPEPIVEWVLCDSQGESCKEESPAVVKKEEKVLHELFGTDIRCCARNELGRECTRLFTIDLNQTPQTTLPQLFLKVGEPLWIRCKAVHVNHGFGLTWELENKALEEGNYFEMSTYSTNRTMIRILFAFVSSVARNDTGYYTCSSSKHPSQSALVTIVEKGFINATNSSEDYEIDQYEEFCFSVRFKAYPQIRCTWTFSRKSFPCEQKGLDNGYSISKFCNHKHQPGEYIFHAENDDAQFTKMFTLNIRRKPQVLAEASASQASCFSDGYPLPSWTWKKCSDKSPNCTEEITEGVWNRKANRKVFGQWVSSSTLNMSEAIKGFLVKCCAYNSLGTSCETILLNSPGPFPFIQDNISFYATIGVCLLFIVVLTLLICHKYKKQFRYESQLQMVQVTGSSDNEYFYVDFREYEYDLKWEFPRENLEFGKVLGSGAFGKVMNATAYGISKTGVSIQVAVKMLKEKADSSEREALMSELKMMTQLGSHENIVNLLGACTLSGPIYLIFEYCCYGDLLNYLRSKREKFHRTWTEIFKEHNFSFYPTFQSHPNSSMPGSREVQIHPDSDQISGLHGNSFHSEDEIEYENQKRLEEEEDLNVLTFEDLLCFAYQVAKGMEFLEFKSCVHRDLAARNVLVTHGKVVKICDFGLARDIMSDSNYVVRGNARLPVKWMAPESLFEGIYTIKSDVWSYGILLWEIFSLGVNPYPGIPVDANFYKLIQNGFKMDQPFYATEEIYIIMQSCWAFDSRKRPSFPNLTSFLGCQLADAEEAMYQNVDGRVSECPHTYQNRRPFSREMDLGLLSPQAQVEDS
Briefly: Cell-based FLT3 receptor ELISA (FLT ligand-induced phosphorylation in Baf3 FLT3 cells). As to conditions: 100 ng/mL Flt ligand, uncertainty ±20%. In outline:
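Receptor phosphotyrosine measured by sandwich ELISA (anti-FLT3 capture, HRP anti-pTyr, luminescence) in FLT3-transfected murine Baf3 cells given 1 h compound pretreatment and 10 min 100 ng/mL FLT ligand after overnight low-serum starvation; triplicates, IC50 from nonlinear regression.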

For the molecule `O=C(Nc1ccc(N2CCCC2)cc1)N1CCC(c2ncnc3cc(O[C@@H]4CCOC4)ccc23)CC1` [Compound 191, (R)-4-[7-(Tetrahydro-furan-3-yloxy)-quinazolin-4-yl]-piperidine-1-carboxylic acid (4-pyrrolidin-1-yl-phenyl)-amide], the IC50 was 144 nM.

`O=C(Nc1ccc(N2CCCC2)cc1)N1CCC(c2ncnc3cc(N4CCN(c5ccccn5)CC4)ccc23)CC1` [Compound 192, 4-[7-(4-Pyridin-2-yl-piperazin-1-yl)-quinazolin-4-yl]-piperidine-1-carboxylic acid (4-pyrrolidin-1-yl-phenyl)-amide] had an IC50 of 1 nM.

With `O=C(Nc1ccc(N2CCCC2)cc1)N1CCC(c2ncnc3cc(N4CCN(c5ncccn5)CC4)ccc23)CC1` [Compound 193, 4-[7-(4-Pyrimidin-2-yl-piperazin-1-yl)-quinazolin-4-yl]-piperidine-1-carboxylic acid (4-pyrrolidin-1-yl-phenyl)-amide], the IC50 is 3 nM. This IC50 lies about 3-fold higher than the previous one.

In turn, `O=C(Nc1ccc(N2CCCC2)cc1)N1CCC(c2ncnc3cc(N4CCN(c5ccncc5)CC4)ccc23)CC1` [Compound 194, 4-[7-(4-Pyridin-4-yl-piperazin-1-yl)-quinazolin-4-yl]-piperidine-1-carboxylic acid (4-pyrrolidin-1-yl-phenyl)-amide] showed an IC50 of 11 nM.

In turn, `O=C(Nc1ccc(N2CCCC2)cc1)N1CCC(c2ncnc3cc(N4CCC(F)CC4)ccc23)CC1` [Compound 195, 4-[7-(4-Fluoro-piperidin-1-yl)-quinazolin-4-yl]-piperidine-1-carboxylic acid (4-pyrrolidin-1-yl-phenyl)-amide] showed an IC50 of 81 nM.

With `O=C(Nc1ccc(N2CCOCC2)cc1)N1CCC(c2ncnc3cc(N4CCC(F)CC4)ccc23)CC1` [Compound 196, 4-[7-(4-Fluoro-piperidin-1-yl)-quinazolin-4-yl]-piperidine-1-carboxylic acid (4-morpholin-4-yl-phenyl)-amide], the IC50 was 3 nM.

Turning to `O=C(Nc1ccc(N2CCOCC2)cc1)N1CCC(c2ncnc3cc(N4CCNC4=O)ccc23)CC1` [Compound 197, 4-[7-(2-Oxo-imidazolidin-1-yl)-quinazolin-4-yl]-piperidine-1-carboxylic acid (4-morpholin-4-yl-phenyl)-amide], the IC50 worked out at 78 nM.

Molecule `CCNC(=O)N1CCN(c2ccc3c(C4CCN(C(=O)Nc5ccc(N6CCCC6)cc5)CC4)ncnc3c2)CC1` [Compound 199, 4-{4-[1-(4-Pyrrolidin-1-yl-phenylcarbamoyl)-piperidin-4-yl]-quinazolin-7-yl}-piperazine-1-carboxylic acid ethylamide] gave an IC50 of 40 nM.

In turn, `O=C(CO)N1CCN(c2ccc3c(C4CCN(C(=O)Nc5ccc(N6CCCC6)cc5)CC4)ncnc3c2)CC1` [Compound 201, 4-{7-[4-(2-Hydroxy-acetyl)-piperazin-1-yl]-quinazolin-7-yl}-piperidine-1-carboxylic acid (4-pyrrolidin-1-yl-phenyl)-amide] returned an IC50 of 65 nM.

For `CN1CCN(CCOc2ccc3c(C4CCN(C(=O)Nc5ccc(N6CCCC6)cc5)CC4)ncnc3c2)CC1=O` [Compound 202, 4-{7-[2-(4-Methyl-3-oxo-piperazin-1-yl)-ethoxy]-quinazolin-4-yl}-piperidine-1-carboxylic acid (4-pyrrolidin-1-yl-phenyl)-amide], half-maximal inhibition (IC50) required 15 nM.

Molecule `CN1CCN(CCCOc2cc3ncnc(C4CCN(C(=O)Nc5ccc(N6CCOCC6)cc5)CC4)c3cc2F)CC1` [Compound 205, 4-{6-Fluoro-7-[3-(4-methyl-piperazin-1-yl)-propoxy]-quinazolin-4-yl}-piperidine-1-carboxylic acid (4-morpholin-4-yl-phenyl)-amide] had an IC50 of 6 nM. Against the preceding molecule, the IC50 is about 2.5-fold lower.

With `COc1cc2ncnc(C3CCN(C(=O)Nc4ccc(OC(C)C)cc4)CC3)c2cc1OC` [Example 1, 4-(6,7-Dimethoxy-quinazolin-4-yl)-piperidine-1-carboxylic acid (4-isopropoxy-phenyl)-amide hydrochloride], it took 17 nM to reach half-maximal inhibition (IC50).

In turn, `CC(C)Oc1ccc(NC(=O)N2CCC(c3ncnc4ccc(C#CCN5CCOCC5)cc34)CC2)cc1` [Example 15, 4-[6-(3-Morpholin-4-yl-prop-1-ynyl)-quinazolin-4-yl]-piperidine-1-carboxylic acid (4-isopropoxy-phenyl)-amide] gave an IC50 of 55 nM.

For the molecule `CC(C)c1ccc(NC(=O)CN2CCC(c3ncnc4ccccc34)CC2)cc1` [Example 16, N-(4-Isopropyl-phenyl)-2-(4-quinazolin-4-yl-piperidin-1-yl)-acetamide], inhibition was half-maximal at 336 nM (IC50).

In the case of `COc1cc2ncnc(C3CCN(C(=O)Nc4ccc(OC5CCC5)nc4)CC3)c2cc1OC` [Example 17, 4-(6,7-Dimethoxy-quinazolin-4-yl)-piperidine-1-carboxylic acid (6-cyclobutoxy-pyridin-3-yl)-amide], the IC50 turned out to be 292 nM.

On to `COc1cc2ncnc(C3CCN(C(=O)Nc4ccc(N5CCOCC5)cc4)CC3)c2cc1OC` [Example 18, 4-(6,7-Dimethoxy-quinazolin-4-yl)-piperidine-1-carboxylic acid (4-morpholin-4-yl-phenyl)-amide], for which half-maximal inhibition (IC50) was put at 104 nM.

For the molecule `COc1cc2ncnc(C3CCN(C(=O)Nc4ccc(N5CCCCC5)cc4)CC3)c2cc1OC` [Example 19, 4-(6,7-Dimethoxy-quinazolin-4-yl)-piperidine-1-carboxylic acid (4-piperidin-1-yl-phenyl)-amide], the IC50 came out at 17 nM. Compared with the last molecule, the IC50 is about 6.1-fold lower.

`COc1cc2ncnc(C3CCN(C(=O)Nc4ccc(C5CCCCC5)cc4)CC3)c2cc1OC` [Example 21, 4-(6,7-Dimethoxy-quinazolin-4-yl)-piperidine-1-carboxylic acid (4-cyclohexyl-phenyl)-amide] registered an IC50 of 2 nM.

In the case of `COc1cc2ncnc(C3CCN(C(=O)Nc4ccc(CO)cc4)CC3)c2cc1OC` [Example 22, 4-(6,7-Dimethoxy-quinazolin-4-yl)-piperidine-1-carboxylic acid (4-hydroxymethyl-phenyl)-amide], the IC50 was 5100 nM.

With `COc1cc2ncnc(C3CCN(C(=O)Nc4ccc5[nH]ccc5c4)CC3)c2cc1OC` [Example 23, 4-(6,7-Dimethoxy-quinazolin-4-yl)-piperidine-1-carboxylic acid (1H-indol-5-yl)-amide], the midpoint of inhibition, the IC50, lay at 900 nM.

`COc1cc2ncnc(C3CCN(C(=O)Nc4ccc5ncsc5c4)CC3)c2cc1OC` [Example 24, 4-(6,7-Dimethoxy-quinazolin-4-yl)-piperidine-1-carboxylic acid benzothiazol-6-ylamide] yielded an IC50 of 2600 nM.

`O=C(Nc1ccc(N2CCOCC2)cc1)N1CCC(c2ncnc3cc(N4CC[C@H](O)C4)ccc23)CC1` [Example 128, 4-[7-(3-Hydroxy-pyrrolidin-1-yl)-quinazolin-4-yl]-piperidine-1-carboxylic acid (4-morpholin-4-yl-phenyl)-amide]: the IC50 came out at 58 nM.

Molecule `CC(C)Oc1ccc(NC(=O)N2CCC(c3ncnc4ccc(N5CCN(C)CC5)cc34)CC2)cc1` [Example 131, 4-[6-(4-Methyl-piperazin-1-yl)-quinazolin-4-yl]-piperidine-1-carboxylic acid (4-isopropoxy-phenyl)-amide] gave a 50% inhibitory concentration (IC50) of 226 nM. Compared with the last molecule, the IC50 is about 3.9-fold higher.

As for `O=C(Nc1ccc(N2CCOCC2)cc1)N1CCC(c2ncnc3cc(N4CCC[C@@H]4CO)ccc23)CC1` [Example 132, (R)-4-[7-(2-Hydroxymethyl-pyrrolidin-1-yl)-quinazolin-4-yl]-piperidine-1-carboxylic acid (4-morpholin-4-yl-phenyl)-amide], it took 27 nM to reach half-maximal inhibition (IC50).

For `O=C(Nc1ccc(N2CCOCC2)cc1)N1CCC(c2ncnc3cc(OCCCN4CCOCC4)ccc23)CC1` [Example 133, 4-[7-(3-Morpholin-4-yl-propoxy)-quinazolin-4-yl]-piperidine-1-carboxylic acid (4-morpholin-4-yl-phenyl)-amide], the IC50 stood at 26 nM.

`CCN(CC)CCCOc1ccc2c(C3CCN(C(=O)Nc4ccc(N5CCOCC5)cc4)CC3)ncnc2c1` [Example 134, 4-[7-(3-Diethylamino-propoxy)-quinazolin-4-yl]-piperidine-1-carboxylic acid (4-morpholin-4-yl-phenyl)-amide] showed an IC50 of 31 nM. This IC50 and that of the molecule before are within 1.5-fold of each other.

In the case of `CN1CCN(c2ccc3c(C4CCN(C(=O)Nc5ccc(N6CCOCC6)cc5)CC4)ncnc3c2)CC1` [Example 135, 4-[7-(4-Methyl-piperazin-1-yl)-quinazolin-4-yl]-piperidine-1-carboxylic acid (4-morpholin-4-yl-phenyl)-amide], half-maximal inhibition (IC50) required 27 nM.

These data come from US20070004660A1, “Synergistic Modulation of Flt3 Kinase Using Alkylquinolines and Alkylquinazolines” (priority 2005, published 2007).
